Values of other authors, collected in patent US8512957B2, “Toxicity typing using liver stem cells” (Vistagen Therapeutics, Inc., priority 2000, dated 2013).

Tests used:
[1] = known toxicity class, printed in first toxicity column (Dev = developmental)
liver = details: known toxicity of the drug, stated in words

| Compound | TOXICITIES EV [1] | liver toxicity (liver) |
| --- | --- | --- |
| CCOC(=O)C(C)(C)Oc1ccc(Cl)cc1 [clofibrate] | tc |  |
| Cc1c(C)c2c(c(C)c1O)CCC(C)(COc1ccc(CC3SC(=O)NC3=O)cc1)O2 (stereo not shown) [troglitazone] |  | rare but severe liver toxicity |
| CN(CCOc1ccc(CC2SC(=O)NC2=O)cc1)c1ccccn1 (stereo not shown) [rosiglitazone] | tc |  |
| CCC(=O)O[C@H]1[C@H](O[C@@H]2[C@@H](C)[C@H](O[C@H]3C[C@@](C)(OC)[C@@H](O)[C@H](C)O3)[C@@H](C)C(=O)O[C@H](CC)[C@@](C)(O)[C@H](O)[C@@H](C)C(=O)[C@H](C)C[C@@]2(C)O)O[C@H](C)C[C@@H]1N(C)C [erythromycin estolate] |  | known liver toxicity |
